# Patent US6642180B1, “Biphenyl-substituted cyclic ketoenols as pesticides” (Bayer Aktiengesellschaft, priority 1999, dated 2003)
# Columns and labels:
# Format in all cases: in vivo
# [1] = tested on: larvae of the mustard beetle (Phaedon cochleariae); experiment: Phaedon-larvae test; conditions: cabbage leaves dipped
# Method: Phaedon-larvae Test Solvent: 7 parts by weight of dimethylformamide Emulsifier: 1 part by weight of alkylaryl polyglycol ether To produce a suitable preparation of active compound, 1 part by weight of active compound is mixed with a stated amount of solvent and emulsifier, and the concentrate is diluted with emulsifier-containing water to the desired concentration. Cabbage leaves (Brassica oleracea) are treated by being dipped into the preparation of active compound of the desired concentration and are populated with larvae of the mustard beetle (Phaedon cochleariae) while the leaves are still moist.
# Meloidogyne incognita = experiment: Meloidogyne test; conditions: sand, Meloidogyne incognita egg/larvae suspension, lettuce
# Method: Solvent: 7 parts by weight of dimethylformamide
# (§1) Emulsifier: 1 parts by weight of alkylaryl polyglycol ether
# To produce a suitable preparation of active compound, 1 part by weight of active compound is mixed with the stated amounts of solvent and emulsifier, and the concentrate is diluted with water to the desired concentration.
# Containers are filled with sand, solution of active compound, Meloidogyne incognita-egg/larvae suspension and lettuce seeds. The lettuce seeds germinate and the plants develop. On the roots, galls are formed.
# After the desired period of time, the nematicidal action is determined in % by the gall formation. 100% means that no galls were found; 0% means that the number of galls on the treated plants corresponds to that of the untreated control.
# Abutilon = experiment: Pre-emergence test (greenhouse); conditions: 250 g ai./ha, after 3 weeks
# Method: (§2) Solvent: 5 parts by weight of acetone
# (§3) Emulsifier: 1 part by weight of alkylaryl polyglycol ether
# (§4) To produce a suitable preparation of active compound, 1 part by weight of active compound is mixed with the stated amount of solvent, with the stated amounts of emulsifiers added and the concentrate is diluted with water to the desired concentration.
# (§5) Seeds of the test plants are sown in normal soil. After about 24 hours, the soil is sprayed with the preparation of active compound such that the particular amounts of active compound desired are applied per unit area. The concentration of the spray liquor is chosen such that the particular amounts of active compound desired are applied in 1000 l of water/ha.
# (§6) After 3 weeks, the degree of damage to the plants is rated in % damage in comparison to the development of the untreated control.
# (§7) 0%=no effect (like untreated control)
# Alopecurus [2] = experiment: Pre-emergence test (greenhouse); conditions: 250 g ai./ha, after 3 weeks
# Method: as §2, §3, §4, §5, §6, §7
# Avena fatua = experiment: Pre-emergence test (greenhouse); conditions: 250 g ai./ha, after 3 weeks
# Method: as §2, §3, §4, §5, §6, §7
# Echinochloa [3] = experiment: Pre-emergence test (greenhouse); conditions: 250 g ai./ha, after 3 weeks
# Method: as §2, §3, §4, §5, §6, §7
# Setaria [4] = experiment: Pre-emergence test (greenhouse); conditions: 250 g ai./ha, after 3 weeks
# Method: as §2, §3, §4, §5, §6, §7
# Alopecurus [5] = experiment: Post-emergence test (greenhouse); conditions: 250 g ai./ha, after three weeks
# Method: as §2, §1
# (§8) To produce a suitable preparation of active compound, 1 part by weight of active compound is mixed with the stated amount of solvent, the stated amount of emulsifier is added and the concentrate is diluted with water to the desired concentration.
# as §5, with “Test plants” for “Seeds”, “a height of 5-15 cm” for “the test plants”, “are” for “are sown in normal soil. After about 24 hours, the soil is”
# (§9) After three weeks, the degree of damage to the plants is rated in % damage in comparison to the development of the untreated control.
# (§10) 0% no effect (like untreated control)
# (§11) Post-emergence/greenhouse
# Echinochloa [6] = experiment: Post-emergence test (greenhouse); conditions: 250 g ai./ha, after three weeks
# Method: as §2, §1, §8
# as §5, with “Test plants” for “Seeds”, “a height of 5-15 cm” for “the test plants”, “are” for “are sown in normal soil. After about 24 hours, the soil is”
# as §9, §10, §11
# Setaria [7] = experiment: Post-emergence test (greenhouse); conditions: 250 g ai./ha, after three weeks
# Method: as §2, §1, §8
# as §5, with “Test plants” for “Seeds”, “a height of 5-15 cm” for “the test plants”, “are” for “are sown in normal soil. After about 24 hours, the soil is”
# as §9, §10, §11
# Sugar beet = experiment: Post-emergence test (greenhouse); conditions: 250 g ai./ha, after three weeks
# Method: as §2, §1, §8
# as §5, with “Test plants” for “Seeds”, “a height of 5-15 cm” for “the test plants”, “are” for “are sown in normal soil. After about 24 hours, the soil is”
# as §9, §10, §11
smiles,measurement,setting,value
COC(=O)N(C)COC1=C(c2c(C)cc(-c3ccc(Cl)cc3)cc2C)C(=O)CC(C)(C)C1 [Example I-8-1],activity (kill of beetle larvae),[1],good activity
same,activity (nematicidal action by gall formation),Meloidogyne incognita,good activity
same,"degree of damage to the plants, Abutilon",Abutilon,80%
same,"degree of damage to the plants, Alopecurus",Alopecurus [2],90%
same,"degree of damage to the plants, Avena fatua",Avena fatua,90%
same,"degree of damage to the plants, Echinochloa",Echinochloa [3],100%
same,"degree of damage to the plants, Setaria",Setaria [4],100%
same,"degree of damage to the plants, Alopecurus",Alopecurus [5],80%
same,"degree of damage to the plants, Echinochloa",Echinochloa [6],100%
same,"degree of damage to the plants, Setaria",Setaria [7],100%
same,"degree of damage to the plants, Sugar beet",Sugar beet,0%
